pIC50: −log10 of the molar value.
Assays:
human Bub1 = human Bub1 (Homo sapiens (Human), UniProt O43683); assay: Bub1 kinase assay (TR-FRET); assay type: biochemical; settings: 10 μM ATP; read-out: Bub1 avg (IC50 [mol/l])
Summary of the method: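 His6-tagged human Bub1 catalytic domain (aa 704-1085, insect-cell expressed, ~200 ng/ml) preincubated with compound 15 min, then reacted 60 min at 22 °C with 10 μM ATP and 1 μM biotinylated peptide (final) in pH 7.5 Tris buffer. Phosphopeptide detected by TR-FRET 665/620 ratio, normalised to no-inhibitor and no-enzyme controls.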

HeLa = assay: Proliferation assay (crystal violet), HeLa; assay type: cell-based; settings: Homo sapiens, 96 h, 4 days, read-out: Inhibition of proliferation IC50 HeLa
Summary of the method: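 Tumour cells seeded at 1000–5000 cells/well in medium with 10% FCS, dosed after 24 h at 0.001–10 μM (0.5% DMSO final) for 4 days. Cell number read by crystal-violet staining after glutaraldehyde fixation (A595), normalised to zero-point plate (0%) and untreated cells (100%); IC50 from 4-parameter fit.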

human Bub1, sequence (O43683 704-1085): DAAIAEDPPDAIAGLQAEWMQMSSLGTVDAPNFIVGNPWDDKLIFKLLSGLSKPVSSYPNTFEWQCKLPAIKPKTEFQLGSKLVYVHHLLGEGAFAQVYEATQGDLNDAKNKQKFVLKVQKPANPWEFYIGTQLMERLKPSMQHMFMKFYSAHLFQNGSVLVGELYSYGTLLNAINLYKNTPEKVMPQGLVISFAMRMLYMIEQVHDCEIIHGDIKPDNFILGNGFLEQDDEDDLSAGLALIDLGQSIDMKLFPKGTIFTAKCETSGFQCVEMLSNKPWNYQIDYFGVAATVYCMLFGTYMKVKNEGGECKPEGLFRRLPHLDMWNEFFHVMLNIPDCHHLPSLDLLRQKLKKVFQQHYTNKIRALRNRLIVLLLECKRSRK

pIC50 (human Bub1) | pIC50 (HeLa) | SMILES
4.77 | 5.68 | COc1ccc(NC(=O)c2c(C)nsc2Nc2nc3ccc(F)cc3s2)cn1 [Example 88, 5-[(6-Fluoro-1,3-benzothiazol-2-yl)amino]-N-(6-methoxypyridin-3-yl)-3-methyl-1,2-thiazole-4-carboxamide]
< 4.70 | 5.01 | CCc1ccccc1NC(=O)c1c(C)nsc1Nc1nc(C(=O)OC)co1 [Example 91, Methyl 2-({4-[(2-ethylphenyl)carbamoyl]-3-methyl-1,2-thiazol-5-yl}amino)-1,3-oxazole-4-carboxylate]
< 4.70 | 6.42 | Cc1nsc(Nc2cnc(C(F)(F)F)cn2)c1C(=O)Nc1ccc(F)c(F)c1 [Example 81, N-(3,4-Difluorophenyl)-3-methyl-5-{[5-(trifluoromethyl)pyrazin-2-yl]amino}-1,2-thiazole-4-carboxamide]
< 4.70 | 6.00 | CCc1ccccc1NC(=O)c1c(C)nsc1Nc1cnc2cc(Cl)ccc2n1 [Example 86, 5-[(6-Chloroquinoxalin-2-yl)amino]-N-(2-ethylphenyl)-3-methyl-1,2-thiazole-4-carboxamide]
4.82 | 6.96 | Cc1nsc(Nc2cncc(C(F)(F)F)n2)c1C(=O)Nc1ccc(F)c(F)c1 [Example 82, N-(3,4-Difluorophenyl)-3-methyl-5-{[6-(trifluoromethyl)pyrazin-2-yl]amino}-1,2-thiazole-4-carboxamide]
< 4.70 | 5.00 | COc1ccc(NC(=O)c2c(C)nsc2Nc2ncc(C(=O)N3CCOCC3)s2)cc1F [Example 93, N-(3-Fluoro-4-methoxyphenyl)-3-methyl-5-{[5-(morpholin-4-ylcarbonyl)-1,3-thiazol-2-yl]amino}-1,2-thiazole-4-carboxamide]
< 4.70 | 5.92 | CCOC(=O)c1sc(Nc2snc(C)c2C(=O)Nc2ccc(Cl)c(F)c2)nc1C [Example 95, Ethyl 2-({4-[(4-chloro-3-fluoro-phenyl)carbamoyl]-3-methyl-1,2-thiazol-5-yl}amino)-4-methyl-1,3-thiazole-5-carboxylate]
< 4.70 | 5.00 | CCOC(=O)c1cnc(Nc2snc(C)c2C(=O)Nc2ccccc2CC)s1 [Example 92, Ethyl 2-({4-[(2-ethylphenyl)-carbamoyl]-3-methyl-1,2-thiazol-5-yl}amino)-1,3-thiazole-5-carboxylate]
< 4.70 | 5.00 | COc1ccc(NC(=O)c2c(C)nsc2Nc2cnc3ccccc3n2)cn1 [Example 94, N-(6-Methoxypyridin-3-yl)-3-methyl-5-(quinoxalin-2-ylamino)-1,2-thiazole-4-carboxamide]
< 4.70 | 5.36 | CNC(=O)c1ccc(Nc2snc(C)c2C(=O)Nc2ccc(F)c(F)c2)nn1 [Example 80, 6-({4-[(3,4-Difluorophenyl)carbamoyl]-3-methyl-1,2-thiazol-5-yl}amino)-N-methylpyridazine-3-carboxamide]
4.96 | 5.55 | COc1ccc2nc(Nc3snc(C)c3C(=O)Nc3ccc(OC)nc3)sc2c1 [Example 87, 5-[(6-Methoxy-1,3-benzothiazol-2-yl)amino]-N-(6-methoxypyridin-3-yl)-3-methyl-1,2-thiazole-4-carboxamide]
< 4.70 | 6.00 | COc1ccc(NC(=O)c2c(C)nsc2Nc2cnc(C(F)(F)F)cn2)cn1 [Example 85, N-(6-methoxypyridin-3-yl)-3-methyl-5-{[5-(trifluoromethyl)pyrazin-2-yl]amino}-1,2-thiazole-4-carboxamide]

More lines, now with the values behind:

SMILES | pIC50 (human Bub1) | pIC50 (HeLa)
CNC(=O)c1cncc(Nc2snc(C)c2C(=O)Nc2ccc(F)c(F)c2)n1 [Example 70, 6-({4-[(3,4-Difluorophenyl)carbamoyl]-3-methyl-1,2-thiazol-5-yl}amino)-N-methylpyrazine-2-carboxamide] | 5.77 | 5.19
CCc1ccccc1NC(=O)c1c(C)nsc1Nc1cc(C#N)ccn1 [Example 4, 5-[(4-Cyanopyridin-2-yl)amino]-N-(2-ethylphenyl)-3-methyl-1,2-thiazole-4-carboxamide] | < 4.70 | 5.49
Cc1nsc(Nc2cnc(Cl)cn2)c1C(=O)Nc1ccc(F)c(F)c1 [Example 74, 5-[(5-Chloropyrazin-2-yl)amino]-N-(3,4-difluorophenyl)-3-methyl-1,2-thiazole-4-carboxamide] | < 4.70 | 6.59
Cc1nsc(Nc2cnc(Br)cn2)c1C(=O)Nc1ccc(F)c(F)c1 [Example 77, 5-[(5-Bromopyrazin-2-yl)amino]-N-(3,4-difluorophenyl)-3-methyl-1,2-thiazole-4-carboxamide] | < 4.70 | 6.70
COc1cncc(Nc2snc(C)c2C(=O)Nc2ccc(F)c(F)c2)n1 [Example 72, N-(3,4-Difluorophenyl)-5-[(6-methoxypyrazin-2-yl)amino]-3-methyl-1,2-thiazole-4-carboxamide] | < 4.70 | 5.77
CCNC(=O)c1cncc(Nc2snc(C)c2C(=O)Nc2ccc(F)c(F)c2)n1 [Example 73, 6-({4-[(3,4-Difluorophenyl)carbamoyl]-3-methyl-1,2-thiazol-5-yl}amino)-N-ethylpyrazine-2-carboxamide] | 5.21 | 5.92
Cc1nsc(Nc2cnc3cc(C(F)(F)F)ccc3n2)c1C(=O)Nc1ccc(Cl)c(F)c1 [Example 68, N-(4-Chloro-3-fluorophenyl)-3-methyl-5-{[6-(trifluoromethyl)quinoxalin-2-yl]amino}-1,2-thiazole-4-carboxamide] | < 4.70 | 6.00
Cc1nsc(Nc2nc3c(C(F)(F)F)ccnc3s2)c1C(=O)Nc1ccc(F)c(F)c1 [Example 58, N-(3,4-Difluorophenyl)-3-methyl-5-{[7-(trifluoromethyl)[1,3]thiazolo[5,4-b]pyridin-2-yl]amino}-1,2-thiazole-4-carboxamide] | < 4.70 | 5.82
Cc1nsc(Nc2cncc(-n3cccn3)n2)c1C(=O)Nc1ccc(Cl)c(F)c1 [Example 67, N-(4-Chloro-3-fluorophenyl)-3-methyl-5-{[6-(1H-pyrazol-1-yl)pyrazin-2-yl]amino}-1,2-thiazole-4-carboxamide] | < 4.70 | 6.11
CCc1cnc(Nc2snc(C)c2C(=O)Nc2ccc(F)c(F)c2)cn1 [Example 79, N-(3,4-Difluorophenyl)-5-[(5-ethylpyrazin-2-yl)amino]-3-methyl-1,2-thiazole-4-carboxamide] | < 4.70 | 6.10
CCc1ccccc1NC(=O)c1c(C)nsc1Nc1nccc(-c2ccccc2)n1 [Example 5, N-(2-Ethylphenyl)-3-methyl-5-[(4-phenylpyrimidin-2-yl)amino]-1,2-thiazole-4-carboxamide] | < 4.70 | < 5.00
CCc1ccccc1NC(=O)c1c(C)nsc1Nc1ccncn1 [Example 2, N-(2-Ethylphenyl)-3-methyl-5-(pyrimidin-4-ylamino)-1,2-thiazole-4-carboxamide] | < 4.70 | < 5.00
CCc1cncc(Nc2snc(C)c2C(=O)Nc2ccc(F)c(F)c2)n1 [Example 76, N-(3,4-Difluorophenyl)-5-[(6-ethylpyrazin-2-yl)amino]-3-methyl-1,2-thiazole-4-carboxamide] | < 4.70 | 5.59
Cc1nsc(Nc2cnc3cc(C(F)(F)F)ccc3n2)c1C(=O)Nc1ccc(F)c(F)c1 [Example 60, N-(3,4-Difluorophenyl)-3-methyl-5-{[6-(trifluoromethyl)quinoxalin-2-yl]amino}-1,2-thiazole-4-carboxamide] | < 4.70 | 6.14
Cc1nsc(Nc2cnccn2)c1C(=O)Nc1ccc(F)c(F)c1 [Example 65, N-(3,4-Difluorophenyl)-3-methyl-5-(pyrazin-2-ylamino)-1,2-thiazole-4-carboxamide] | < 4.70 | 5.55
Cc1nsc(Nc2cncc(Cl)n2)c1C(=O)Nc1ccc(F)c(F)c1 [Example 71, 5-[(6-Chloropyrazin-2-yl)amino]-N-(3,4-difluorophenyl)-3-methyl-1,2-thiazole-4-carboxamide] | < 4.70 | 6.42
Cc1nsc(Nc2cncc(-n3cccn3)n2)c1C(=O)Nc1ccc(F)c(F)c1 [Example 64, N-(3,4-Difluorophenyl)-3-methyl-5-{[6-(1H-pyrazol-1-yl)pyrazin-2-yl]amino}-1,2-thiazole-4-carboxamide] | – | 5.80
CCc1ccccc1NC(=O)c1c(C)nsc1Nc1ncccc1C(F)(F)F [Example 3, N-(2-Ethylphenyl)-3-methyl-5-{[3-(trifluoromethyl)pyridin-2-yl]amino}-1,2-thiazole-4-carboxamide] | < 4.70 | 5.11
COC(=O)c1cncc(Nc2snc(C)c2C(=O)Nc2ccc(F)c(F)c2)n1 [Example 66, Methyl 6-({4-[(3,4-difluorophenyl)carbamoyl]-3-methyl-1,2-thiazol-5-yl}amino)-pyrazine-2-carboxylate] | < 4.70 | 5.59
Cc1cncc(Nc2snc(C)c2C(=O)Nc2ccc(F)c(F)c2)n1 [Example 69] | < 4.70 | 5.15
CNC(=O)c1cnc(Nc2snc(C)c2C(=O)Nc2ccc(F)c(F)c2)cn1 [Example 75, 5-({4-[(3,4-Difluorophenyl)carbamoyl]-3-methyl-1,2-thiazol-5-yl}amino)-N-methylpyrazine-2-carboxamide] | < 4.70 | 5.72
Cc1nsc(Nc2cnc3cc(C(F)(F)F)ccc3n2)c1C(=O)Nc1ccc(Cl)c(Cl)c1 [Example 61, N-(3,4-Dichlorophenyl)-3-methyl-5-{[6-(trifluoromethyl)quinoxalin-2-yl]amino}-1,2-thiazole-4-carboxamide] | < 4.70 | 5.11

Reference: patent US9682995B2, “Amino-substituted isothiazoles” (BAYER PHARMA AKTIENGESELLSCHAFT, priority 2013, dated 2017)
